From paper PMC11079024, “Identification of a family of species-selective complex I inhibitors as potential anthelmintics” (Nature Communications, 2024)
pIC50: −log10 of the molar value. Read-outs that look alike come from different tables or passages of the source.

Biological target: C. elegans (N2) complex I (NADH:ubiquinone oxidoreductase) (Caenorhabditis elegans, UniProt P24887+Q93873+Q94360)
Test: biochemical
Type: biochemical
Method in brief: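 Mitochondria from liquid-cultured adults were freeze-thawed thrice before the 15-min DCIP-coupled NADH oxidation read.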

[1] = wild-type C. elegans, mean of replicates, read-out: in vitro complex I activity relative to solvent control, Mean
[2] = wild-type C. elegans, single replicate, read-out: in vitro complex I activity relative to solvent control, individual replicate

Chain of C. elegans (N2) complex I (NADH:ubiquinone oxidoreductase) (Q94360 17-199): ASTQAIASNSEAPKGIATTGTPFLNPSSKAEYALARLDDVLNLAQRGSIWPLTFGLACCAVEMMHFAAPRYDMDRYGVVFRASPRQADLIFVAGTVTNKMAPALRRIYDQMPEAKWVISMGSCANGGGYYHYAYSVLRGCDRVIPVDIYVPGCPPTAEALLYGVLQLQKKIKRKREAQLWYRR
Chain of C. elegans (N2) complex I (NADH:ubiquinone oxidoreductase) (P24887 whole entry): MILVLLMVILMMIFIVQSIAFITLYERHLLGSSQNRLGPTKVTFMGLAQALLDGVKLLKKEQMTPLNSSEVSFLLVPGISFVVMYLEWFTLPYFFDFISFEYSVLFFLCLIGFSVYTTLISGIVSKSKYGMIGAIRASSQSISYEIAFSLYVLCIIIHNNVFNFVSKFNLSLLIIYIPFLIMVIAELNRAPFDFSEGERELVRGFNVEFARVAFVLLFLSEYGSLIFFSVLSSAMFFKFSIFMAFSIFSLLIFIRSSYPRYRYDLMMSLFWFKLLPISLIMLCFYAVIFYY
Chain of C. elegans (N2) complex I (NADH:ubiquinone oxidoreductase) (Q93873 31-482): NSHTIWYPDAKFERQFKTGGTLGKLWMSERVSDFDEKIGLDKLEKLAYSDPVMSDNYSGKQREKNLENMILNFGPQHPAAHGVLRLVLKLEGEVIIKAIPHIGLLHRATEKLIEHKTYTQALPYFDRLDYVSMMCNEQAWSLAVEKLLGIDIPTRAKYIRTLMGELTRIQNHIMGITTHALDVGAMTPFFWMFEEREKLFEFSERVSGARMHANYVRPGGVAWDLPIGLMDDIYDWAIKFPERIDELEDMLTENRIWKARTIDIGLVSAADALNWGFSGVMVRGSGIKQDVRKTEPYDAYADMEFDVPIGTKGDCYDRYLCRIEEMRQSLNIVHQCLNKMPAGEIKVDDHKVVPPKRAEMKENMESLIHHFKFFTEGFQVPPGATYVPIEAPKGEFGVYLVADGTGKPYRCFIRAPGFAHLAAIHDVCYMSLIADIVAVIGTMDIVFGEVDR

## CC(C)(C)c1ccc(CCOc2ncnc3ccccc23)cc1 [Fenazaquin, reference compound]
Dose 0.0001 µM, wild-type C. elegans, mean of replicates, read-out: in vitro complex I activity relative to solvent control, Mean
  remaining activity at 0.0001 µM: 94.3%
Dose 0.0005 µM, wild-type C. elegans, mean of replicates, read-out: in vitro complex I activity relative to solvent control, Mean
  remaining activity at 0.0005 µM: 89.7%
[1]
  remaining activity at 0.001 µM: 82.5%
  remaining activity at 0.0025 µM: 63.3%
  remaining activity at 0.005 µM: 42.1%
  remaining activity at 0.013 µM: 24%
[2]
  remaining activity at 0.001 µM: 80.4%
  remaining activity at 0.0025 µM: 63.7%
  remaining activity at 0.005 µM: 42.3%
  remaining activity at 0.013 µM: 25.6%
Dose 0.025 µM, wild-type C. elegans, mean of replicates, read-out: in vitro complex I activity relative to solvent control, Mean
  remaining activity at 0.025 µM: 12.5%
Dose 0.063 µM, wild-type C. elegans, mean of replicates, read-out: in vitro complex I activity relative to solvent control, Mean
  remaining activity at 0.063 µM: 5.41%
Dose 0.125 µM, wild-type C. elegans, mean of replicates, read-out: in vitro complex I activity relative to solvent control, Mean
  remaining activity at 0.125 µM: 2.53%
Dose 0.313 µM, wild-type C. elegans, mean of replicates, read-out: in vitro complex I activity relative to solvent control, Mean
  remaining activity at 0.313 µM: 1.71%
Dose 0.625 µM, wild-type C. elegans, mean of replicates, read-out: in vitro complex I activity relative to solvent control, Mean
  remaining activity at 0.625 µM: 2.18%
Dose 1.5 µM, wild-type C. elegans, mean of replicates, read-out: in vitro complex I activity relative to solvent control, Mean
  remaining activity at 1.5 µM: 1.91%
Dose 3 µM, wild-type C. elegans, mean of replicates, read-out: in vitro complex I activity relative to solvent control, Mean
  remaining activity at 3 µM: 1.48%
Dose 15 µM, wild-type C. elegans, mean of replicates, read-out: in vitro complex I activity relative to solvent control, Mean
  remaining activity at 15 µM: 1.53%
Dose 37.5 µM, wild-type C. elegans, mean of replicates, read-out: in vitro complex I activity relative to solvent control, Mean
  remaining activity at 37.5 µM: 1.86%
Dose 75 µM, wild-type C. elegans, mean of replicates, read-out: in vitro complex I activity relative to solvent control, Mean
  remaining activity at 75 µM: 3.14%
wild-type (N2) mitochondria, read-out: C. elegans Complex I IC50
  pIC50: 8.38
